Experimental data published in patent US11066447B2, “Aureobasidium derivatives and methods of synthesis” (AureoGen Biosciences, Inc., priority 2016, dated 2021).
In brackets after ≈: the same amount, converted by molar mass. Several values for one entry are separate records, joined by “and”; a condition that tells them apart may be missing. Equal values may be shown once. Read-outs that look alike come from different tables or passages of the source. Numbered stars: 1 amine (or outer) side, 2 acyl side, 3 side chain; on linkers, the order of the positions; unused ones are H or OH. Square brackets hold non-standard residues; d marks the D form. Peptide text beside a SMILES is read from it. X8 = CC(=O)N1CCN(c2ccc(-c3cccc(C[C@@H](C(=O)[*:2])N(C)[*:1])c3)cn2)CC1; X1 = CC(C)N1CCN(c2ccc(-c3cccc(C[C@@H](C(=O)[*:2])N(C)[*:1])c3)cc2)CC1; X7 = CC(C)N1CCN(c2ccc(-c3cccc(C[C@H](N[*:1])C(=O)[*:2])c3)cc2)CC1; X10 = CN([C@@H](Cc1cccc(-c2ccc(N3CCNCC3)nc2)c1)C(=O)[*:2])[*:1]; Hmp(2R,3S) = CC[C@H](C)[C@@H](O)C(=O)O; NMeVal(β-OH) = CN[C@H](C(=O)O)C(C)(C)O; NMeV = CN[C@H](C(=O)O)C(C)C

Tests used:
[1] = tested on: C. albicans MMX 2000 ATCC 10231; assay: MIC assay (CLSI microdilution); type: cell-based; conditions: Candida albicans, ATCC10231, RPMI plus 0.002% Tween-80; read-out: MIC
[2] = tested on: C. neoformans MMX 0634 ATCC 90112; assay: MIC assay (CLSI microdilution); type: cell-based; conditions: Cryptococcus neoformans, ATCC90112, 72 h, 72 hour; RPMI plus 0.002% Tween-80; read-out: MIC
[3] = tested on: C. parapsilosis MMX 2323 ATCC 22019; assay: MIC assay (CLSI microdilution); type: cell-based, Candida parapsilosis; conditions: read-out: MIC
How it was run: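 Broth microdilution MIC testing of Candida parapsilosis ATCC 22019 followed CLSI methods in RPMI-1640, with or without 0.002% Tween-80. Yeast grown 48 hours at 35° C on Sabouraud dextrose agar was suspended to a 0.5 McFarland standard and diluted 1:100 to roughly 0.5-2.5×10^3 CFU/mL. The MIC was the lowest concentration preventing visible growth.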

A. flavus MMX 5948 = assay: MIC/MEC assay (CLSI microdilution); type: cell-based; conditions: Aspergillus flavus, MMX5948, 48 h; for minimal effective concentration: RPMI plus 0.002% Tween-80; for MIC: RPMI plus 0.002% Tween-80, read-out: MIC
How it was run: (§1)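 Test agents were assayed by CLSI broth microdilution in Tween-80-supplemented (0.002%) RPMI-1640 against spore inocula of approximately 0.2-2.5×10^4 CFU/mL. Strain MMX 5280 was run both with and without Tween-80.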

A. fumigatus MMX 5944 = assay: MIC/MEC assay (CLSI microdilution); type: cell-based; conditions: Aspergillus fumigatus, MMX5944, 48 h; for minimal effective concentration: RPMI plus 0.002% Tween-80; for MIC: RPMI plus 0.002% Tween-80, read-out: MIC
How it was run: as §1

[4] = tested on: A. fumigatus MMX 6781 ATCC MYA-4609; assay: MIC/MEC assay (CLSI microdilution); type: cell-based
How it was run: as §1

[5] = tested on: A. fumigatus MMX 6782 ATCC 13073; assay: MIC/MEC assay (CLSI microdilution); type: cell-based; conditions: for minimal effective concentration: RPMI plus 0.002% Tween-80, read-out: MEC
How it was run: as §1

[6] = tested on: A. fumigatus from Aureogen; assay: MIC/MEC assay (CLSI microdilution); type: cell-based; conditions: Aspergillus fumigatus, 48 h; for minimal effective concentration: RPMI plus 0.002% Tween-80; for MIC: RPMI plus 0.002% Tween-80, read-out: MIC
How it was run: as §1

[7] = tested on: A. niger MMX 0624 ATCC 16888; assay: MIC/MEC assay (CLSI microdilution); type: cell-based; conditions: Aspergillus niger, ATCC16888, 48 h; for minimal effective concentration: RPMI plus 0.002% Tween-80, read-out: MEC; for MIC: RPMI plus 0.002% Tween-80, read-out: MIC
How it was run: as §1

[8] = tested on: A. fumigatus MMX 5280 ATCC MYA-3626; assay: MIC/MEC assay (CLSI microdilution); type: cell-based, Aspergillus fumigatus
How it was run: as §1

[9] = tested on: C. albicans MMX 2000 ATCC 10231; assay: MIC assay (CLSI microdilution); type: cell-based; conditions: Candida albicans, ATCC10231, Without Tween-80; read-out: MIC
[10] = ATCC22019, RPMI plus 0.002% Tween-80
[11] = RPMI plus 0.002% Tween-80, 48 hr
[12] = Aspergillus fumigatus, ATCC13073, 48 h
[13] = Aspergillus fumigatus, ATCC13073, 48 h, RPMI plus 0.002% Tween-80, read-out: MIC
[14] = Aspergillus fumigatus, 48 h, Without Tween-80, read-out: MIC
[15] = Aspergillus fumigatus, 48 h, RPMI plus 0.002% Tween-80, read-out: MEC
[16] = Aspergillus fumigatus, 48 h, RPMI plus 0.002% Tween-80, read-out: MIC

Structure (SMILES) | MIC [1] | MIC [2] | MIC [3, 10] | MIC ([3]; ATCC22019, Without Tween-80) | minimal effective concentration (A. flavus MMX 5948) | MIC (A. flavus MMX 5948) | minimal effective concentration (A. fumigatus MMX 5944) | MIC (A. fumigatus MMX 5944) | MEC [4, 11] | MIC [4, 11] | minimal effective concentration [5, 12] | MIC [5, 13] | minimal effective concentration [6] | MIC [6] | minimal effective concentration [7] | MIC [7] | MIC [8, 14] | MEC ([8]; Without Tween-80, 48 hr) | MIC [9] | minimal effective concentration [8, 15] | also measured
CC[C@H](C)[C@@H]1NC(=O)[C@@H]2CCCN2C(=O)[C@H](Cc2cccc(-c3ccc(N4CCNCC4)nc3)c2)N(C)C(=O)[C@H](Cc2ccccc2)NC(=O)[C@H](C(C)C)N(C)C(=O)[C@@H]([C@@H](C)CC)OC(=O)[C@H](C(C)(C)O)N(C)C(=O)[C@H](CC(C)C)NC(=O)[C@H](C(C)C)N(C)C1=O [Compound 30] (cyclo(F[X10]PI[NMeV]L[NMeVal(β-OH)][Hmp(2R,3S)][NMeV])) | 0.015 µg/mL | 0.25 µg/mL | 0.06 µg/mL | 2 µg/mL (≈ 1.58 µM) | 0.12 µg/mL | 0.5 µg/mL | 0.5 µg/mL | 1 µg/mL | 1 µg/mL | 2 µg/mL | 0.5 µg/mL | 2 µg/mL | 0.5 µg/mL | 1 µg/mL | 0.5 µg/mL | 0.5 µg/mL | 2 µg/mL (≈ 1.58 µM) | 1 µg/mL | 0.5 µg/mL (≈ 0.396 µM) |  | MEC [8, 11]: 1 µg/mL; MIC [8, 11]: 2 µg/mL
CC[C@H](C)[C@@H]1NC(=O)[C@@H]2CCCN2C(=O)[C@H](Cc2cccc(-c3ccc(N4CCN(C(C)C)CC4)cc3)c2)N(C)C(=O)[C@H](Cc2cccc(-c3ccc(N4CCN(C(C)C)CC4)cc3)c2)NC(=O)[C@H](C(C)C)N(C)C(=O)[C@@H]([C@@H](C)CC)OC(=O)[C@H](C(C)(C)O)N(C)C(=O)[C@H](CC(C)C)NC(=O)[C@H](C(C)C)N(C)C1=O [Compound 31] (cyclo(I[NMeV]L[NMeVal(β-OH)][Hmp(2R,3S)][NMeV][X7][X1]P)) | 0.06 µg/mL | 1 µg/mL | 0.5 µg/mL | 2 µg/mL (≈ 1.33 µM) | 0.12 µg/mL | 0.5 µg/mL | 0.5 µg/mL | 1 µg/mL | 1 µg/mL | 2 µg/mL |  |  | 0.25 µg/mL | 0.5 µg/mL | 0.5 µg/mL | 1 µg/mL | 1 µg/mL (≈ 0.664 µM) | 1/1 μg/mL and 1 μg/mL | 1 µg/mL (≈ 0.664 µM) | 0.5 µg/mL | MEC [5, 11]: 1 µg/mL; MIC [5, 11]: 2 µg/mL; MIC [8, 16]: 2 µg/mL; MIC ([8]; Without Tween-80, 48 hr): 2 µg/mL (≈ 1.33 µM)
CC[C@H](C)[C@@H]1NC(=O)[C@@H]2CCCN2C(=O)[C@H](Cc2cccc(-c3ccc(N4CCN(C(C)=O)CC4)nc3)c2)N(C)C(=O)[C@H](Cc2ccccc2)NC(=O)[C@H](C(C)C)N(C)C(=O)[C@@H]([C@@H](C)CC)OC(=O)[C@H](C(C)(C)O)N(C)C(=O)[C@H](CC(C)C)NC(=O)[C@H](C(C)C)N(C)C1=O [Compound 32] (cyclo(F[X8]PI[NMeV]L[NMeVal(β-OH)][Hmp(2R,3S)][NMeV])) | 0.03 µg/mL | 2 µg/mL | 0.25 µg/mL | 2 µg/mL (≈ 1.53 µM) | 0.25 µg/mL | 1 µg/mL | 1 µg/mL | > 64 µg/mL |  |  | > 64 µg/mL | > 64 µg/mL | > 64 µg/mL | > 64 µg/mL | 0.5 µg/mL | 1 µg/mL | > 64 µg/mL |  | 2 µg/mL (≈ 1.53 µM) | 2 µg/mL | MIC [4, 16]: > 64 µg/mL; minimal effective concentration ([4]; Aspergillus fumigatus, RPMI plus 0.002% Tween-80, 48 hr): > 64 µg/mL; MIC [8, 16]: > 64 µg/mL; minimal effective concentration ([8]; Aspergillus fumigatus, 48 h, Without Tween-80, read-out: MEC): > 64 µg/mL
